Results as given in patent US7112586B2, “Substituted diamine derivatives useful as motilin antagonists” (Ortho-McNeil Pharmaceutical, Inc., priority 2000, dated 2006).

Target: T1, Motilin Receptor (Oryctolagus cuniculus, UniProt G1T803)
T1 construct: The muscle tissue was homogenized in 10 volumes of 50 mM Tris-Cl; from tissue; host or cells: rabbit colon smooth muscle, crude membrane homogenate
Assay: Motilin receptor binding, rabbit colon membranes, 125I porcine motilin
Design: Rabbit Colon % Inh / inhibition / % Inh (Rabbit colon): dose or concentration left out as unconfirmed
Settings: rabbit colon membranes; for inhibition: read-out: Rabbit Colon % Inh; for IC50: read-out: Rabbit Colon IC50

T1 sequence (G1T803 1-400): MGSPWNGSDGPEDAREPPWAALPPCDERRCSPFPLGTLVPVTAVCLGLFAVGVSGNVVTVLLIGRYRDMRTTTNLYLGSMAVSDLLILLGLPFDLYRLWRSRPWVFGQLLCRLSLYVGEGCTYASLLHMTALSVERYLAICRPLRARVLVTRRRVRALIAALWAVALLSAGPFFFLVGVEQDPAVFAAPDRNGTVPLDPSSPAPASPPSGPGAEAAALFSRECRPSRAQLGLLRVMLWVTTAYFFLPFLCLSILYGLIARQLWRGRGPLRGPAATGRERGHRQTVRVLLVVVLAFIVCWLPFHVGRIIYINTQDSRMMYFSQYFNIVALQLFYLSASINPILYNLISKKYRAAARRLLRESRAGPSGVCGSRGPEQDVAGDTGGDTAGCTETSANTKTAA

| SMILES | Rabbit Colon % Inh [%] | inhibition [%] | IC50 [nM] |
| --- | --- | --- | --- |
| CCN(CC)CCOc1ccc(N(Cc2ccc(F)cc2)C(=O)CCCC(=O)N(CCc2ccccc2)Cc2ccccc2)cc1 [compound 195] | 62 |  |  |
| COc1cccc(CN(Cc2cccc(Cl)c2)C(=O)CCCC(=O)N(Cc2ccc(F)cc2)c2cccc(OCCN3CCCC3)c2)c1 [compound 198] |  | 100 | 107 |
| O=C(CCCC(=O)N(Cc1ccc(F)cc1)c1cccc(OCCN2CCCC2)c1)N(CCc1ccccc1)Cc1cc(Cl)cc(Cl)c1 [compound 199] |  | 91 | 100 |
| O=C(CCCC(=O)N(Cc1ccc(F)cc1)c1cccc(OCCN2CCCC2)c1)N(CCc1ccccc1)Cc1cccc(C(F)(F)F)c1 [compound 200] |  | 92 | 41 |
| O=C(CCCC(=O)N(Cc1ccc(F)cc1)c1cccc(OCCN2CCCC2)c1)N(CCN1CCCC1)Cc1cccc(Cl)c1 [compound 203] |  | 98 | 240 |
| O=C(CCCC(=O)N(Cc1ccc(F)cc1)c1cccc(OCCN2CCOCC2)c1)N(CCc1ccccc1)Cc1cccc([N+](=O)[O-])c1 [compound 205] |  | 76 | 100 |
| COc1cccc(CN(Cc2cccc(Cl)c2)C(=O)CCCC(=O)N(Cc2ccc(F)cc2)c2cccc(OCCN3CCOCC3)c2)c1 [compound 206] |  | 60 | 770 |
| Cc1ccc(OCCN2CCCC2)cc1N(Cc1ccc(F)cc1)C(=O)CCCC(=O)N(CCc1ccccc1)Cc1ccccc1 [compound 207] |  | 87 | 64 |
| O=C(c1ccc(F)cc1)N(CC1CCCC(N(Cc2cccc([N+](=O)[O-])c2)C(=O)C(Cl)(Cl)Cl)C1)c1cccc(OCCN2CCCC2)c1 (stereo not shown) [compound 211] |  | 100 | 14 |
| O=C(c1ccc(F)cc1)N(CC1CCCC(N(Cc2cccc(Cl)c2)C(=O)C(Cl)(Cl)Cl)C1)c1cccc(OCCN2CCCC2)c1 (stereo not shown) [compound 212] |  | 89 | 58 |
| Cc1c(OCCN2CCCC2)cccc1N(Cc1ccc(F)cc1)C(=O)CCCC(=O)N(CCc1ccccc1)Cc1cccc(C(=O)O)c1 [compound 215] |  | 100 | 84 |
| O=C(Nc1ccccc1)N(CC1CCCC(N(Cc2cccc(Cl)c2)C(=O)C(Cl)(Cl)Cl)C1)c1cccc(OCCN2CCCC2)c1 (stereo not shown) [compound 223] |  | 100 | 41 |
| O=C(Nc1ccccc1)N(CC1CCCC(N(Cc2ccccc2)C(=O)C(Cl)(Cl)Cl)C1)c1cccc(OCCN2CCCC2)c1 (stereo not shown) [compound 224] |  | 98 | 39 |
| CC(C)(C)C(=O)N(Cc1ccccc1)[C@@H]1CCC[C@H](CN(C(=O)Nc2ccccc2)c2cccc(OCCN3CCCC3)c2)C1 [compound 225] |  | 93 | 21 |
| CCN(CC)CCOc1cccc(N(CC2CCCC(N(Cc3cccc(Cl)c3)C(=O)C(C)(C)C)C2)C(=O)c2ccc(F)cc2)c1 (stereo not shown) [compound 233] |  | 89 | 170 |
| Cc1c(OCCN2CCOCC2)cccc1N(Cc1ccc(F)cc1)C(=O)CCCC(=O)N(CCc1ccccc1)Cc1ccccc1 [compound 234] |  | 86 | 218 |
| CC(C)(C)C(=O)N(Cc1cccc(Cl)c1)C1CCCC(CN(C(=O)c2ccc(F)cc2)c2cccc(OCCN3CCCCC3)c2)C1 (stereo not shown) [compound 237] |  | 96 | 168 |
| O=C(c1ccc(F)cc1)N(CC1CCCC(N(Cc2cccc(Cl)c2)C(=O)C(Cl)(Cl)Cl)C1)c1cccc(OCCN2CCCCC2)c1 (stereo not shown) [compound 238] |  | 98 | 97 |
| COc1cccc(CC(=O)N(Cc2cccc(Cl)c2)C2CCCC(CN(C(=O)c3ccc(F)cc3)c3cccc(OCCN4CCOCC4)c3)C2)c1 (stereo not shown) [compound 241] | 14 |  |  |
| O=C(c1ccc(F)cc1)N(CC1CCCC(N(Cc2cccc(Cl)c2)C(=O)CCC2CCCC2)C1)c1cccc(OCCN2CCOCC2)c1 (stereo not shown) [compound 242] | 36 |  |  |

| SMILES | Rabbit Colon % Inh [%] | inhibition [%] | IC50 [nM] |
| --- | --- | --- | --- |
| COc1ccc(CC(=O)N(Cc2cccc(Cl)c2)C2CCCC(CN(C(=O)c3ccc(F)cc3)c3cccc(OCCN4CCOCC4)c3)C2)cc1 (stereo not shown) [compound 243] | 35 |  |  |
| O=C(c1ccc(F)cc1)N(CC1CCCC(N(Cc2cccc(Cl)c2)C(=O)Cc2ccccc2)C1)c1cccc(OCCN2CCOCC2)c1 (stereo not shown) [compound 244] | 42 |  |  |
| COc1ccc(CC(=O)N(Cc2cccc(Cl)c2)C2CCCC(CN(C(=O)c3ccc(F)cc3)c3cccc(OCCN4CCOCC4)c3)C2)cc1OC (stereo not shown) [compound 245] | 40 |  |  |
| CC(C)(C)CC(=O)N(Cc1cccc(Cl)c1)C1CCCC(CN(C(=O)c2ccc(F)cc2)c2cccc(OCCN3CCOCC3)c2)C1 (stereo not shown) [compound 246] | 73 |  |  |
| O=C(c1ccc(F)cc1)N(CC1CCCC(N(Cc2cccc(Cl)c2)C(=O)Cc2cccs2)C1)c1cccc(OCCN2CCOCC2)c1 (stereo not shown) [compound 248] |  | 86 | 760 |
| O=C(c1ccc(F)cc1)N(CC1CCCC(N(Cc2cccc(Cl)c2)C(=O)Cc2ccc(F)cc2)C1)c1cccc(OCCN2CCOCC2)c1 (stereo not shown) [compound 249] | 22 |  |  |
| CC(C)(C)c1ccc2c(c1)C(=O)N(C1CCCC(CN(C(=O)c3ccc(F)cc3)c3cccc(OCCN4CCOCC4)c3)C1)C2=O (stereo not shown) [compound 250] | 0 |  |  |
| O=C(c1ccc(F)cc1)N(CC1CCCC(N2C(=O)c3ccc(F)cc3C2=O)C1)c1cccc(OCCN2CCOCC2)c1 (stereo not shown) [compound 251] | 0 |  |  |
| O=C(c1ccc(F)cc1)N(CC1CCCC(N2C(=O)c3ccc4ccccc4c3C2=O)C1)c1cccc(OCCN2CCOCC2)c1 (stereo not shown) [compound 252] | 15 |  |  |
| Cc1ccc2c(c1)C(=O)N(C1CCCC(CN(C(=O)c3ccc(F)cc3)c3cccc(OCCN4CCOCC4)c3)C1)C2=O (stereo not shown) [compound 253] | 30 |  |  |
| O=C(c1ccc(F)cc1)N(CC1CCCC(N2C(=O)CC3(CCCC3)CC2=O)C1)c1cccc(OCCN2CCOCC2)c1 (stereo not shown) [compound 254] | 25 |  |  |
| O=C(c1ccc(F)cc1)N(CC1CCCC(N2C(=O)c3cc(Cl)c(Cl)cc3C2=O)C1)c1cccc(OCCN2CCOCC2)c1 (stereo not shown) [compound 255] | 22 |  |  |
| Cc1ccc2c(c1)C(=O)N(C1CCCC(CN(C(=O)c3ccc(F)cc3)c3cccc(OCCN4CCOCC4)c3)C1)C2=O (stereo not shown) [compound 256] | 27 |  |  |
| O=C(c1ccc(F)cc1)N(CC1CCCC(N2C(=O)c3ccccc3C2=O)C1)c1cccc(OCCN2CCOCC2)c1 (stereo not shown) [compound 257] | 0 |  |  |
| CC1(C)CC(=O)N(C2CCCC(CN(C(=O)c3ccc(F)cc3)c3cccc(OCCN4CCOCC4)c3)C2)C(=O)C1 (stereo not shown) [compound 258] | 34 |  |  |
| O=C(c1ccc(F)cc1)N(CC1CCCC(N2C(=O)c3ccc(Br)cc3C2=O)C1)c1cccc(OCCN2CCOCC2)c1 (stereo not shown) [compound 259] | 17 |  |  |
| CC(=O)Oc1ccc2c(c1)C(=O)N(C1CCCC(CN(C(=O)c3ccc(F)cc3)c3cccc(OCCN4CCOCC4)c3)C1)C2=O (stereo not shown) [compound 260] | 30 |  |  |
| O=C(c1ccc(F)cc1)N(CC1CCCC(N2C(=O)c3ccc4ccc(F)cc4c3C2=O)C1)c1cccc(OCCN2CCOCC2)c1 (stereo not shown) [compound 261] | 0 |  |  |
| O=C(c1ccc(F)cc1)N(CC1CCCC(N2C(=O)C3CC3C2=O)C1)c1cccc(OCCN2CCOCC2)c1 (stereo not shown) [compound 262] | 18 |  |  |
| O=C(c1ccc(F)cc1)N(CC1CCCC(N2C(=O)c3c(Cl)ccc(Cl)c3C2=O)C1)c1cccc(OCCN2CCOCC2)c1 (stereo not shown) [compound 263] | 11 |  |  |
